Data as given in PubChem BioAssay AID652082 (The Scripps Research Institute Molecular Screening Center, 2013).
Activity calls are given as the source filed them. How the calls were made is not given here.

These molecules were tested against Kappa-type opioid receptor (Homo sapiens) (UniProt P41145) (assay: OPRK1 antagonists, confirmation, cell-based, fluorescence (AID 652082)). Conditions: OPRK1 cell line, fluorescence antagonist read-out; at 9 µM; active compounds read high.
Chain of Kappa-type opioid receptor (Homo sapiens) (P41145 whole entry, looked up): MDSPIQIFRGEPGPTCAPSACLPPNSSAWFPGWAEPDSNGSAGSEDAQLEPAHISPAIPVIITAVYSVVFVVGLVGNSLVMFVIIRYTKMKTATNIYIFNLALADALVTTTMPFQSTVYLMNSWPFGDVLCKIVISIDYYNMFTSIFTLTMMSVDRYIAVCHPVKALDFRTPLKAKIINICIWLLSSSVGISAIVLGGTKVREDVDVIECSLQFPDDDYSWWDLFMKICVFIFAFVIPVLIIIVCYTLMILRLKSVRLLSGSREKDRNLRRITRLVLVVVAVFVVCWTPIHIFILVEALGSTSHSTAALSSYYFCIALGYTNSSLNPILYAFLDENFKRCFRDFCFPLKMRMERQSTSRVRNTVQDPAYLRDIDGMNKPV

| Structure (SMILES) | inhibition |
| --- | --- |
| S=C(NNc1c(Cl)cncc1Cl)Nc1ccc(Cl)cc1Cl | 51.8% (inactive) |
| COc1cc([N+](=O)[O-])c(OC)cc1SCc1n[nH]c(=S)n1-c1ccc(C)cc1 | 73.3% |
| N#Cc1cccnc1NNC(=O)COCC(=O)O | 62.5% |
| O=C(Nc1ccc(F)c(Cl)c1)c1cc(Br)ccc1O | 62.9% |
| CN(C)c1cc(NC(=O)Nc2ccccc2)c2ccccc2n1 | 43.7% (inactive) |
| CN(C)c1cccc2c1c(NC(=O)Nc1ccc(OCc3ccccc3)cc1)nn2C | 58.2% |
| C#Cc1cccc(NC(=O)c2sc3nc4c(c(-c5cccs5)c3c2N)CCCC4)c1 | 31.7% (inactive) |
| COC(=O)c1cnn(-c2ccc(Cl)cc2)c1C=C(C#N)C#N | 3.67% (inactive) |
| COC(=O)c1ccc(/C=C2\C(=O)Nc3ccccc32)n1-c1ccc(F)cc1 | 12% (inactive) |
| Brc1ccc(-c2csc(Nc3ccncc3)n2)cc1 | 34.9% (inactive) |
| O=[N+]([O-])c1ccc(N2CCc3ccccc32)cc1 | 17.4% (inactive) |
| CC(CCC(C)OC(=O)c1ccccc1C(=O)O)OC(=O)c1ccccc1C(=O)O (stereo unspecified) | 7.76% (inactive) |
| Clc1ccc2nc3c(nc2c1)Nc1ccccc1S3 | 80.7% |
| CCN(CC)c1ccc(/C=C/c2ccc([N+](=O)[O-])cc2C#N)cc1 | 49.6% (inactive) |
| C=CCn1c(-c2sc3nnc(-c4ccccc4)c(-c4ccccc4)c3c2N)n[nH]c1=S | 30.5% (inactive) |
| Cn1c(=O)c2cc3cc(Cl)ccc3nc2c2c(=O)n(-c3ccccc3)c(=O)n(-c3ccccc3)c21 | 58.9% |
| CCOC(=O)C1CCN(Cc2cccc(NC(=O)c3ccco3)c2)CC1 | 35.5% (inactive) |
| COc1cccc(C(=O)c2sc3nsc(SCc4ccc(F)cc4)c3c2N)c1 | 2.74% (inactive) |
| c1ccc(-c2cc3ncnc(NCc4ccc5c(c4)OCO5)c3s2)cc1 | -5.98% (inactive) |
| CC(=O)N1CCC(C(=O)O/N=C(\N)c2ccc(Cl)cc2)CC1 | -11.1% (inactive) |
| O=C(N/C(=C\c1ccc(-c2ccc([N+](=O)[O-])cc2)o1)c1nc2ccccc2[nH]1)c1ccccc1 | 58.7% |
| N#Cc1cccc(C#N)c1Oc1ccc(N)cc1 | -6.85% (inactive) |

| Structure (SMILES) | inhibition |
| --- | --- |
| CN(C)c1ccc(-n2nnnc2SCc2ccc(Cl)cc2)cc1 | 26% (inactive) |
| O=C(c1cnn(-c2ccc(Cl)cc2)c1C(F)(F)F)N1CCN(c2ncnc3ccsc23)CC1 | 79% |
| O=C(/C=C/c1cc(-c2ccccc2)c(C(F)(F)F)s1)c1cccs1 | 20.3% (inactive) |
| Clc1ccc2c(Nc3ccc4c(c3)OCO4)ccnc2c1 | 30% (inactive) |
| CCOC(=O)[C@@H](N)CCSC | -3.43% (inactive) |
| CCCCNc1ccc2c3c(cccc13)C(=O)N(CCCC)C2=O | 76.8% |
| NC(=NC(=O)c1cccc(C(F)(F)F)c1)c1ccc(C(F)(F)F)cn1 | 41.2% (inactive) |
| COc1ccc([N+](=O)[O-])c(S(=O)(=O)c2ccc(Cl)cc2)n1 | 18.1% (inactive) |
| COc1ccc(OS(=O)(=O)c2sc(Br)cc2Br)cc1 | 36.2% (inactive) |
| CC1COC(c2cccc([N+](=O)[O-])c2)N1 (stereo unspecified) | -9.85% (inactive) |
| O=[N+]([O-])c1ccc(-c2ccc(/C=N/Nc3ccccc3)o2)cc1 | 82.8% |
| O=[N+]([O-])c1ccc(N/N=C2\CCOc3ccc(F)cc32)cc1 | 25.4% (inactive) |
| CCOC(=O)C1CCN(Cc2cccc(NC(=O)c3cccs3)c2)CC1 | 0.7% (inactive) |
| O=C(NNC(=O)C(F)(F)F)c1ccc[nH]1 | 9.13% (inactive) |
| COc1ccccc1NC(=O)NCCN1CCN(Cc2ccccc2)CC1 | 59.6% |
| COC(=O)/C=C1\SC(=Nc2ccc(Cl)cc2)N(c2ccc(Cl)cc2)C1=O | 57.8% |
| O=C(Nc1ccc(Cl)cc1Cl)c1cc([N+](=O)[O-])cc2c1-c1ccc([N+](=O)[O-])cc1C2=O | 59.2% |
| Oc1c(Cl)cc(Cl)cc1C1Nc2cc(Cl)c(C(F)(F)F)cc2N1 (stereo unspecified) | 58.8% |
| N#Cc1c(S/C=C(\O)c2cc3ccccc3o2)nc2c(c1C(F)(F)F)CCCC2 | 15.3% (inactive) |
| CCOC(=O)c1cn[nH]c1NC(=S)Nc1cccc(C(F)(F)F)c1 | 46.6% (inactive) |
| CS(=O)(=O)/C(C#N)=C\c1ccc(Cl)s1 | 4.17% (inactive) |
| O=C(O)C(F)(F)C(F)(F)C(=O)NCc1cccc(Cl)c1 | 0.14% (inactive) |

| Structure (SMILES) | inhibition |
| --- | --- |
| O=c1c2cc(-c3ccccc3)sc2nnn1/N=C/c1cccs1 | 3.84% (inactive) |
| COc1ccccc1C1CCN(Cc2ccc3c(c2)CCC(C)(C)O3)CC1 | 59.5% |
| CSc1sc(C(=O)NC(=O)Nc2ccc(Cl)cc2)c2c1-c1nocc1CC2 | 15.4% (inactive) |
| COc1cccc(/C=C(\C#N)c2ccc([N+](=O)[O-])cc2)c1OC | 34.5% (inactive) |
| CCCCCC[n+]1ccccc1/C=C/c1ccc(N(C)C)cc1 | 79.5% |
| Nc1c(C(=O)N/N=C/c2ccc3c(c2)OCO3)sc2nnc(-c3ccccc3)c(-c3ccccc3)c12 | 77.2% |
| O=[N+]([O-])c1c(Sc2ccc(Cl)cc2)ccc2nsnc12 | 37.2% (inactive) |
| C=CCNC(=S)NNC(=O)c1oc2nc(-c3ccc(Cl)cc3)cc(-c3ccccc3)c2c1N | 11.6% (inactive) |
| COC(=O)c1cc(-c2ccc(OC)cc2)c(-c2ccc(OC)cc2)s1 | 68.6% |
| Nc1c(C(=O)c2ccccc2)sc2nsc(SCCN3CCCC3)c12 | 43.2% (inactive) |
| O=[N+]([O-])c1ccc(-c2ccc(/C=N/NC(=S)Nc3cccc(F)c3)o2)cc1 | 60.3% |
| O=C1c2ccc(Cl)c3c(N4CCSCC4)ccc(c23)C(=O)N1c1ccccc1 | 9.35% (inactive) |
| CC(=O)Nc1onc(C)c1-c1nc(-c2ccc(Cl)cc2Cl)cs1 | -1.54% (inactive) |
| Cc1ccc(/C=c2\sc3nc4ccccc4n3c2=O)o1 | 5.32% (inactive) |
| O=[N+]([O-])c1ccc(N/N=C/c2ccc(-c3cccs3)s2)nc1 | 71.3% |
| O=[N+]([O-])c1ccc(C2=NN(c3ccccc3)C(c3ccco3)C2)cc1 (stereo unspecified) | 82.9% |
| CCCCCCCCCCCC(=O)ON1C(=O)CCC1=O | 36.2% (inactive) |
| CCOC(=O)c1cc(C(=O)OC)c(C)nc1N1CCC(NC2CCCCC2O)CC1 (stereo unspecified) | 95.2% |
| O=C(Nc1ccc([N+](=O)[O-])cc1)Nc1csc(-c2cccnc2)n1 | -2.3% (inactive) |
| CC(=O)c1sc2nc(-c3cccs3)cc(C(F)(F)F)c2c1N | 11.3% (inactive) |
| CSc1ccc(/C=C/c2onc(C)c2[N+](=O)[O-])s1 | 23% (inactive) |
| CCOC(=O)c1ccc(N2CC3CCCCN3C2c2cccc(OC)c2O)cc1 (stereo unspecified) | 49% (inactive) |
